Paper PMC6940514 (Angewandte Chemie (International ed. in English), 2019)

Legend:
S. pneumoniae = test: Antibacterial activity; assay type: cell-based; details: Streptococcus pneumoniae
S. pyogenes = test: Antibacterial activity; assay type: cell-based; details: Streptococcus pyogenes
Gram-negative bacteria = details: general statement, no reference given; cited from earlier work

Compound: C=C(NC(=O)C(=C)NC(=O)c1csc(C2=N[C@@H]3c4csc(n4)[C@H]4NC(=O)c5csc(n5)[C@H]([C@](C)(O)[C@@H](C)O)NC(=O)[C@H]5CSC(=N5)/C(=C/C)NC(=O)[C@H]([C@@H](C)O)NC(=O)c5csc(n5)[C@]3(CC2)NC(=O)[C@H](C)NC(=O)C(=C)NC(=O)[C@H](C)NC(=O)[C@H]([C@@H](C)CC)N[C@@H]2C=Cc3c([C@H](C)O)cc(nc3[C@H]2O)C(=O)O[C@@H]4C)n1)C(N)=O [Compound 1, Thiostrepton]
- MIC (S. pneumoniae): < 1 ng/mL
- MIC (S. pyogenes): < 1 ng/mL
- activity against Gram-negative bacteria (Gram-negative bacteria): inactive
